These results are taken from PubChem BioAssay AID330 (DTP/NCI, 2004).

Where “and” joins values, the source holds several entries; their conditions need not be identical. Equal values may be shown once. Inconclusive results and toxic doses are left out.

The subject of this assay is P388 leukemia ip, CD2F1 mice, survival T/C. The experiment in a line: NCI In Vivo Anticancer Drug Screen. Data for tumor model P388 Leukemia (intraperitoneal) in CD2F1 (CDF1) mice. Particulars: endpoint: median survival time, higher = longer survival. The procedure, abridged:
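Mice carrying the transplanted tumor received test compound or vehicle. Survival was recorded in each group, and the value is the treated-group measurement divided by that of the vehicle-treated control group.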

Setting [1] is: dose: 60.0 mg/kg/injection, schedule: Q01DX005 (ip), vehicle: Klucel (hydroxypropylcellulose) (HPC).
[2] abbreviates: dose: 100.0 mg/kg/injection, schedule: Q01DX009 (ip), vehicle: saline with Tween-80.
Where [3] appears, read: dose: 50.0 mg/kg/injection, schedule: Q01DX005 (ip), vehicle: Klucel (hydroxypropylcellulose) (HPC).
Setting [4] is: dose: 100.0 mg/kg/injection, schedule: Q01DX005 (ip), vehicle: Klucel (hydroxypropylcellulose) (HPC).
Setting [5] is: dose: 200.0 mg/kg/injection, schedule: Q01DX005 (ip), vehicle: Klucel (hydroxypropylcellulose) (HPC).
Setting [6] is: dose: 50.0 mg/kg/injection, schedule: Q01DX009 (ip), vehicle: Klucel (hydroxypropylcellulose) (HPC).
Where [7] appears, read: dose: 100.0 mg/kg/injection, schedule: Q01DX009 (ip), vehicle: Klucel (hydroxypropylcellulose) (HPC).

As to `NCCc1ccncc1`, the T/C is 98 % of control (dose: 60.0 mg/kg/injection, schedule: Q01DX005 (ip), vehicle: suspension in saline) and 94 % of control (dose: 120.0 mg/kg/injection, schedule: Q01DX005 (ip), vehicle: suspension in saline).

With `CCCCN1C(=O)C(=C/C=C/C=C2\Oc3ccccc3N2CCCS(=O)(=O)O)C(=O)N(CCCC)C1=S`, the T/C reads like this: under setting [1], 106 % of control; (dose: 120.0 mg/kg/injection, schedule: Q01DX005 (ip), vehicle: Klucel (hydroxypropylcellulose) (HPC)) 106 % of control; (dose: 240.0 mg/kg/injection, schedule: Q01DX005 (ip), vehicle: Klucel (hydroxypropylcellulose) (HPC)) 106 % of control.

Take `O=C(CCCCl)Oc1ccccc1`: the T/C was 100 % of control (dose: 100.0 mg/kg/injection, schedule: Q04DX003 (ip), vehicle: saline with Tween-80); 109 % of control (dose: 200.0 mg/kg/injection, schedule: Q04DX003 (ip), vehicle: saline with Tween-80); 104 % of control (dose: 400.0 mg/kg/injection, schedule: Q04DX003 (ip), vehicle: saline with Tween-80).

For `C=CCCC1CC2CCCCN2O1` (stereo unspecified), the T/C (dose: 61.25 mg/kg/injection, schedule: Q01DX009 (ip), vehicle: saline) was 115 % of control; the T/C (dose: 122.5 mg/kg/injection, schedule: Q01DX009 (ip), vehicle: saline) was 103 % of control; the T/C (dose: 245.0 mg/kg/injection, schedule: Q01DX009 (ip), vehicle: saline) is 100 % of control.

Turning to `N#Cc1n[nH]c2nc(=S)sc(N)c12`, the T/C was 103 % of control (dose: 100.0 mg/kg/injection, schedule: Q04DX002 (ip), vehicle: water); 90 % of control (dose: 200.0 mg/kg/injection, schedule: Q04DX002 (ip), vehicle: water); 97 % of control (dose: 400.0 mg/kg/injection, schedule: Q04DX002 (ip), vehicle: water).

Turning to `NC(c1ccccc1)S(=O)(=O)O` (stereo unspecified), the T/C runs as follows: (dose: 25.0 mg/kg/injection, schedule: Q01DX009 (ip), vehicle: saline) 121 % of control; (dose: 50.0 mg/kg/injection, schedule: Q01DX009 (ip), vehicle: saline) 121 % of control; (dose: 66.7 mg/kg/injection, schedule: Q01DX009 (ip), vehicle: saline with Tween-80) 92 % of control; (dose: 100.0 mg/kg/injection, schedule: Q01DX001 (ip), vehicle: saline) 100 % of control; under setting [2], 88 % of control; (dose: 100.0 mg/kg/injection, schedule: Q01DX009 (ip), vehicle: saline) 122 % of control. For the same molecule, the T/C (dose: 150.0 mg/kg/injection, schedule: Q01DX009 (ip), vehicle: saline with Tween-80) was 91 % of control; the T/C (dose: 200.0 mg/kg/injection, schedule: Q01DX001 (ip), vehicle: saline) was 100 % of control; the T/C (dose: 200.0 mg/kg/injection, schedule: Q01DX009 (ip), vehicle: saline) was 121 % of control; the T/C (dose: 400.0 mg/kg/injection, schedule: Q01DX001 (ip), vehicle: saline) is 100 % of control.

For `Cc1ccc(-c2cn3c(n2)SCC3)cc1`, the T/C runs as follows: (dose: 100.0 mg/kg/injection, schedule: Q04DX003 (ip), vehicle: Klucel (hydroxypropylcellulose) (HPC)) 99 % of control; (dose: 200.0 mg/kg/injection, schedule: Q04DX003 (ip), vehicle: Klucel (hydroxypropylcellulose) (HPC)) 106 % of control; (dose: 400.0 mg/kg/injection, schedule: Q04DX003 (ip), vehicle: Klucel (hydroxypropylcellulose) (HPC)) 99 % of control.

In the case of `COc1cc(C2=N/C(=C/c3cccc(O)c3O)C(=O)O2)cc(OC)c1OC`, the T/C is 101 % of control (dose: 6.25 mg/kg/injection, schedule: Q01DX009 (ip), vehicle: Klucel (hydroxypropylcellulose) (HPC)) and 96 % of control (dose: 12.5 mg/kg/injection, schedule: Q01DX009 (ip), vehicle: Klucel (hydroxypropylcellulose) (HPC)).

`C=C1CC2(CCCC3(C2)OCCO3)OC1=O` (stereo unspecified): the T/C by setting is: under setting [3], 95 % of control; under setting [4], 95 % of control; under setting [5], 106 % of control.

Take `CN(C#N)CCc1ccccc1`: the T/C (dose: 50.0 mg/kg/injection, schedule: Q01DX009 (ip), vehicle: saline with Tween-80) was 100 % of control and the T/C under setting [2] is 96 % of control.

Regarding `COCCCN=C(N)c1ccc(NC(=O)c2ccc(C(=O)Nc3ccc(C(N)=NCCCOC)cc3)cc2)cc1`, the T/C runs as follows: (dose: 1.65 mg/kg/injection, schedule: Q01DX009 (ip), vehicle: saline with Tween-80) 154 % of control; (dose: 2.5 mg/kg/injection, schedule: Q01DX009 (ip), vehicle: saline with Tween-80) 154 % of control; (dose: 3.75 mg/kg/injection, schedule: Q01DX009 (ip), vehicle: saline with Tween-80) 195 % of control; (dose: 5.63 mg/kg/injection, schedule: Q01DX009 (ip), vehicle: saline with Tween-80) 227 % of control; (dose: 6.6 mg/kg/injection, schedule: Q04DX003 (ip), vehicle: saline with Tween-80) 155 % of control; (dose: 10.0 mg/kg/injection, schedule: Q04DX003 (ip), vehicle: saline with Tween-80) 150 % of control. For the same molecule, the T/C (dose: 12.5 mg/kg/injection, schedule: Q04DX003 (ip), vehicle: saline with Tween-80) was 177 % of control; the T/C (dose: 15.0 mg/kg/injection, schedule: Q04DX003 (ip), vehicle: saline with Tween-80) is 200 % of control; the T/C (dose: 25.0 mg/kg/injection, schedule: Q04DX003 (ip), vehicle: saline with Tween-80) is 200 % of control; the T/C (dose: 50.0 mg/kg/injection, schedule: Q04DX003 (ip), vehicle: saline with Tween-80) was 90 % of control.

As to `COC(=O)C(=O)c1c(C(=O)OC)nc2[nH]n(-c3ccccc3)c(=O)c2c1-c1cccc2ccccc12`, the T/C is 100 % of control and 110 % of control (dose: 30.0 mg/kg/injection, schedule: Q01DX005 (ip), vehicle: saline with Tween-80); 98 % of control and 100 % of control (dose: 60.0 mg/kg/injection, schedule: Q01DX005 (ip), vehicle: saline with Tween-80); 91 % of control and 94 % of control (dose: 120.0 mg/kg/injection, schedule: Q01DX005 (ip), vehicle: saline with Tween-80).

Take `CC(=O)C1CCC=C2C1CC1CC2C1(C)C` (stereo unspecified): the T/C is 100 % of control (dose: 25.0 mg/kg/injection, schedule: Q01DX009 (ip), vehicle: Klucel (hydroxypropylcellulose) (HPC)); 100 % of control under setting [6]; 104 % of control under setting [7].

Regarding `[C-]#[O+].[C-]#[O+].[C-]#[O+].[CH3][Sn]([c]1ccccc1)[c]1ccccc1.[W].[c-]1[c-][c-][cH-][c-]1`, the T/C (dose: 100.0 mg/kg/injection, schedule: Q04DX003 (ip), vehicle: saline) was 103 % of control; the T/C (dose: 200.0 mg/kg/injection, schedule: Q04DX003 (ip), vehicle: saline) is 110 % of control; the T/C (dose: 400.0 mg/kg/injection, schedule: Q04DX003 (ip), vehicle: saline) was 110 % of control.

As for `Cn1c(-c2ccccc2)cc2cc(CN)ccc21`, the T/C reads like this: under setting [6], 100 % of control; under setting [7], 100 % of control.

For the molecule `CN(C)CCNC1c2ccccc2-c2ccccc21`, the T/C was 99 % of control (dose: 50.0 mg/kg/injection, schedule: Q01DX005 (ip), vehicle: saline); 98 % of control (dose: 100.0 mg/kg/injection, schedule: Q01DX005 (ip), vehicle: saline); 100 % of control (dose: 200.0 mg/kg/injection, schedule: Q01DX005 (ip), vehicle: saline).

For `Nc1ccc(-c2cc3ccc(C4=NCCN4)cc3[nH]2)cc1`, the T/C under setting [1] is 117 % of control.

Regarding `CCCCOC(=O)/C=C/C(=O)N1CC(C)N(C(=O)/C=C/C(=O)OCCCC)CC1C` (stereo unspecified), the T/C reads like this: under setting [3], 105 % of control; under setting [4], 100 % of control; under setting [5], 100 % of control.

On to `CCC1CC(C)C(O)/C=C/C=C/CC(C)OC(=O)CC(O)C(OC)C1OC1CC(C)(O)C(O)C(C)O1` (stereo unspecified), for which the T/C by setting is: (dose: 10.5 mg/kg/injection, schedule: Q01DX005 (ip), vehicle: Klucel (hydroxypropylcellulose) (HPC)) 112 % of control; (dose: 21.0 mg/kg/injection, schedule: Q01DX005 (ip), vehicle: Klucel (hydroxypropylcellulose) (HPC)) 102 % of control; (dose: 42.0 mg/kg/injection, schedule: Q01DX005 (ip), vehicle: Klucel (hydroxypropylcellulose) (HPC)) 105 % of control; (dose: 84.0 mg/kg/injection, schedule: Q01DX005 (ip), vehicle: Klucel (hydroxypropylcellulose) (HPC)) 102 % of control.
